Patent publication US20230331694A1, “FAP-ACTIVATED COMPOUNDS FOR TREATMENT OF CANCER” (The Johns Hopkins University, priority 2020, published 2023)

Columns and labels:
[1] = target: T1, DPPIV (Homo sapiens, UniProt P27487); assay: LC-MS assay of niclosamide production from prodrug with DPPIV; assay type: biochemical; conditions: 24 hrs
T1 construct: purchased R&D Systems
Procedure: (§1) In vitro Characterization of Enzymatic Activation Kinetics and FAP-specific Cellular UptakelCytotoxicity: Kinetics of compound activation by FAP is performed as previously described (Aggarwal et al. Biochemistry 47, 1076-1086 (2008); Denmeade et al. Sci TranslMed 4, 140ra186 (2012)). Briefly, increasing concentrations of the test compound (0-10 µM) are incubated with rhFAP, rhDPPIV, or rhPREP [20 nM] (R&D Systems) at 37° C. while shaking. Aliquots are taken to determine concentrations of the test compound and active drug compound at time points ranging from 0-24 hrs using the LCMS method described above in Example 4. Kinetic constants (Km and kcat) are calculated on the basis of the rate of hydrolysis (v) during the linear phase using Michaelis-Menten plots (v vs [S]) with nonlinear regression analysis. Cellular uptake in the presence or absence of rhFAP is determined in cell lysates using the same methodology. Cytotoxicity is determined via MTT in the presence or absence of rhFAP and/or a FAP-specific inhibitor (Jansen et al. J Med Chem 57, 3053-3074 (2014).

[2] = target: T2, PREP (Homo sapiens, UniProt P48147); assay: LC-MS assay of niclosamide production from prodrug with PREP; assay type: biochemical; conditions: 24 hrs
T2 construct: purchased R&D Systems
T2 sequence (P48147 1-710): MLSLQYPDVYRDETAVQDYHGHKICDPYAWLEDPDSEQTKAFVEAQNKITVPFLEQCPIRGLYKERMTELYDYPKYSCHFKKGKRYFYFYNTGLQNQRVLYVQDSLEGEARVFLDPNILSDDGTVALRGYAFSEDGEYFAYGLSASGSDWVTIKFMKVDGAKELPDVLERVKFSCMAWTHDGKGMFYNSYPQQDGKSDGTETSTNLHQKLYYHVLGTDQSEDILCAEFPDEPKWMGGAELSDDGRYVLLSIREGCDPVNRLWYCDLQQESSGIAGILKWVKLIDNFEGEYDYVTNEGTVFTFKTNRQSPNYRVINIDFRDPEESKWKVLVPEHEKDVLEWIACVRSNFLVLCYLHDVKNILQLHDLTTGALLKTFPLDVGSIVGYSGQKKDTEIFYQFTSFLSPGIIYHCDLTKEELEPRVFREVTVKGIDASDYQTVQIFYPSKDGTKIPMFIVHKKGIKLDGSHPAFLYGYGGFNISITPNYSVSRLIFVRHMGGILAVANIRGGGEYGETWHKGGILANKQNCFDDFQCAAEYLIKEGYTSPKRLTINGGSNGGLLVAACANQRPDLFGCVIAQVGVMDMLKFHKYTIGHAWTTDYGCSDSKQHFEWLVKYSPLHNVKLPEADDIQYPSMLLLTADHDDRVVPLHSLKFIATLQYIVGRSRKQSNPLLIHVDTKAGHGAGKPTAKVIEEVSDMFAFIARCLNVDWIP
Procedure: as §1

[3] = system: Myc-CaP-CR tumors; assay: Abiraterone-resistant CRPC tumor model (Myc-CaP-CR) in vivo
Procedure: Animals were treated with either abiraterone at 10 mg/kg by daily oral gavage alone or together with Compound 1 at 50 mg/kg IV on d0 and d4. Toxicity was monitored by measuring body weight and body score (i.e., appearance, lethargy, etc.).

[4] = system: CWR22-H tumors; assay: Castration-resistant CWR22-H tumors in castrated male NSG mice; assay type: in vivo
Procedure: Castrated male NSG mice were inoculated with castration-resistant CWR22-H tumors in 50% Matrigel. When tumors reached ~0.2 cc, treatment with Compound 1 (40 mg/kg) via intraperitoneal (I.P.) injection was initiated. Tumor volumes and body weights were monitored 2x/wk. […] Treatment was well-tolerated as documented by weight loss of <20%.

[5] = target: T3, FAP (Homo sapiens, UniProt Q12884); assay: Kinetics of FAP-dependent activation in vitro +/- BSA (HPLC); assay type: biochemical
T3 sequence (Q12884 1-760): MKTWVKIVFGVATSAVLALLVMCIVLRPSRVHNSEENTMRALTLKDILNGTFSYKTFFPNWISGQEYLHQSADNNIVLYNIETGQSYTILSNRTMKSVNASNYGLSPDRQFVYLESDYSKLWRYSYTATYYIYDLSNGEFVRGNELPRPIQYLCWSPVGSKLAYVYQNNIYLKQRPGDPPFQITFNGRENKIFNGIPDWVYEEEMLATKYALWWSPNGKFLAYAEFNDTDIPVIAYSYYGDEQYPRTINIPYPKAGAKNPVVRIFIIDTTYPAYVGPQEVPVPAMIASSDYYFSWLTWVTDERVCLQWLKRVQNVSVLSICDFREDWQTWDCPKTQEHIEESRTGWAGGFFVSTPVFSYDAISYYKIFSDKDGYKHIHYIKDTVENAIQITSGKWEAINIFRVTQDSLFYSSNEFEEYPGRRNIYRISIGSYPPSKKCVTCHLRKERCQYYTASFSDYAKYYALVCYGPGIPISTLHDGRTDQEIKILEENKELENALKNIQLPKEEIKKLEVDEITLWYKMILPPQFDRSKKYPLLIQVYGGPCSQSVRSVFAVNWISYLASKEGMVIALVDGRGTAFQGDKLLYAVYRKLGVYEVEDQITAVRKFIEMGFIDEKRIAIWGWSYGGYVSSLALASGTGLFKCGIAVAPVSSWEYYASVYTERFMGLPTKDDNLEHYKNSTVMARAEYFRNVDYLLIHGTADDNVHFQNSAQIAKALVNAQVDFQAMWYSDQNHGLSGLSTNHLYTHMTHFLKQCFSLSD
Procedure: Compound 1 was incubated in Buffer (50 mM Tris-HCl, pH 7.4; 150 mM NaCI) +/-0.4% BSA in glass vials, mixing at 37° C. Aliquots were taken at indicated time points and the presence of Compound 1 (prodrug) and Niclosamide (active compound) were quantified via HPLC.

[6] = target: T3, FAP; assay: LC-MS assay of FAP-dependent production of niclosamide from prodrug; assay type: biochemical; set-up: purchased R&D Systems
Procedure: as §1

[7] = system: LNCaP cells; assay: Seahorse XF Cell Mito Stress Test; assay type: cell-based
Procedure: A mitochondrial stress test assay was performed using the Agilent Seahorse XF Cell Mito Stress Test Kit (catalog no. 103015-100), a widely-used assay for assessing mitochondrial function. Compound 1 or niclosamide (1 µM) was incubated overnight at 37° C. shaking, with or without FAP (20 nM) in Seahorse Media. This mixture was added to LNCaP cells (60 k cells) the next day, immediately prior to starting the assay (0.5 µM final concentration).

[8] = Pharmacokinetics: plasma, liver, kidney, smooth muscle levels after Compound 1 dosing
Procedure: (§2) Column: Luna 2.5u C18, 100 mm ×2.5 mm (Phenomenex 00D-4446-B0). Mobile phase: A = 0.5% acetonitrile/H2O/0.1% formic acid; B= 95% acetonitrile/H2O/0.1% formic acid; Flow = 150 µL/min.

[9] = target: T3, FAP; assay: FAP-dependent activation of Compound 4 in vitro (HPLC); assay type: biochemical; set-up: purchased R&D Systems; conditions: buffer +/- rhFAP (20 nM) overnight (~16 hrs), 37° C., HPLC (FIG. 10)
Procedure: Compound 4 was incubated in buffer +/- rhFAP (20 nM) overnight (~16 hrs), mixing at 37° C. Aliquots taken at indicated time points and the presence of Compound 4 (prodrug) and Tasquinimod (TasQ) were quantified via HPLC.

[10] = system: SkCaP-1 (human PCa xenograft); assay: SkCaP-1 human PCa xenograft in NSG mice; assay type: in vivo; conditions: 30 mg/kg i.p. daily vs DMSO control (FIG. 4)
Procedure: Intact male NSG mice (3-4 per group) bearing SkCaP-1 (human PCa xenograft) were treated with 30 mg/kg Compound 4 (a tasquinimod compound) i.p. daily, or a control (DMSO).

[11] = system: mammalian cells such as mCRPCs, TAMs, MSCs, and CAFs; conditions: all cells, including mammalian cells; read-out: LC50 (the source's name); cited from earlier work
[12] = in vivo, 40 mg/kg
Procedure: as §2

[13] = system: panel of benign and malignant cells; assay: MTT assay, potency of niclosamide against a panel of cells; assay type: cell-based; conditions: all cells tested (FIG. 3A)
Text: FIGS. 3A-3D show characterization data for a compound disclosed herein (Compound 1).

T1 sequence (P27487 whole entry): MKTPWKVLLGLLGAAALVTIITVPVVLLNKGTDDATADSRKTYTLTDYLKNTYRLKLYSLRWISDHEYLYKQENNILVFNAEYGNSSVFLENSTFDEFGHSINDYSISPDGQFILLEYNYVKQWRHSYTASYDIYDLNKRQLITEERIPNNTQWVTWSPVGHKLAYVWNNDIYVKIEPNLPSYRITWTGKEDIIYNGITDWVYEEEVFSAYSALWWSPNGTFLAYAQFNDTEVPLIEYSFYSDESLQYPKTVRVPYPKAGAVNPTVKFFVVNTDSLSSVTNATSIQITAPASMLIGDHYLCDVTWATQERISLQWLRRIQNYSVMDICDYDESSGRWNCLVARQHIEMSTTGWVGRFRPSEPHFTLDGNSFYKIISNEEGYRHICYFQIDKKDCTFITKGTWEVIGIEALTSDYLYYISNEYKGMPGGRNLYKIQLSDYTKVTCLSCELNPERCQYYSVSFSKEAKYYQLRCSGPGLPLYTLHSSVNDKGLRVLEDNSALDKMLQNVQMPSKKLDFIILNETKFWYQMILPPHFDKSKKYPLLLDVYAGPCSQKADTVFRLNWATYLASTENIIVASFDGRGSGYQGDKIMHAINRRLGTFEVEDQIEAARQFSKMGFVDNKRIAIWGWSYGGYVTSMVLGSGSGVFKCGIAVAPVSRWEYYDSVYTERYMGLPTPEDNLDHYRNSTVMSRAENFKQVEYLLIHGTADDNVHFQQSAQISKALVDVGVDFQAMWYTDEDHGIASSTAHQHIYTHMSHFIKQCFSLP

O=C(Nc1ccc([N+](=O)[O-])cc1Cl)c1cc(Cl)ccc1OCc1ccc(NC(=O)C2CC(F)(F)CN2C(=O)CNC(=O)c2ccnc3ccccc23)cc1 (stereo not drawn) [Compound 1]
production of active niclosamide [1]: no production observed | production of active niclosamide [2]: no production observed | toxicity (body weight and body score) ([3]; Compound 1 50 mg/kg IV d0 and d4 together with abiraterone 10 mg/kg (FIG. 3D)): no evidence of toxicity | anti-tumor efficacy ([3]; Compound 1 50 mg/kg IV d0 and d4 together with abiraterone 10 mg/kg daily oral gavage (FIG. 3C)): significant anti-tumor efficacy | weight loss ([4]; 40 mg/kg daily IP): < 20% | anti-tumor activity (tumor volume) ([4]; 40 mg/kg daily IP (FIG. 8)): Anti-tumor activity was observed | effect of BSA on production of the active compound ([5]; 0.4% BSA): BSA inhibits production of the active compound | prodrug and active compound over time ([5]; buffer pH 7.4, 37° C., HPLC (FIG. 5)): time-dependent increase in the active compound and concomitant decrease in the prodrug over time | production of active niclosamide ([6]; absence of enzyme, 24 hrs): no production observed | increase in active niclosamide ([6]; with FAP, over 24 hrs (FIG. 3B)): ~ 20 fold | baseline ECAR ([7]; activated by FAP): already at maximum | oxygen consumption rate (OCR), mitochondrial uncoupling ([7]; activated by FAP (20 nM) overnight, 0.5 µM final (FIG. 6)): uncouples mitochondria | extracellular acidification rate (ECAR) on oligomycin addition ([7]; activated by FAP (FIG. 7)): does not change with the addition of oligomycin | non-mitochondrial respiration ([7]; activated by FAP, after rotenone and antimycin A): no change in non-mitochondrial respiration | plasma level as % of the IV dose ([8]; 40 mg/kg IP): ~ 50% | kidney level as % of the IV dose ([8]; 40 mg/kg IP, at ~4 hrs): ~ 30% | liver level as % of the IV dose ([8]; 40 mg/kg IP, at ~4 hrs): ~ 50% | converted to niclosamide (kidney) ([8]; Compound 1 administered IV or IP): < 10% | stability of the prodrug as a systemic therapy ([8]; in vivo, from tissue niclosamide levels): good stability | concentration at 1 hr ([8]; kidney, intravenous, 40 mg/kg): ~50 µM | concentration at 1 hr ([8]; kidney, oral, 40 mg/kg): ~1 µM | Kp at 1 hr ([8]; liver, intravenous, 40 mg/kg): 10 to 15 | concentration at 1 hr ([8]; liver, intravenous, 40 mg/kg): ~100 µM | concentration at 1 hr ([8]; liver, oral, 40 mg/kg): ~10 µM | bioavailability ([8]; liver, po, 40 mg/kg): ~10% | half-life ([8]; plasma, intravenous, 40 mg/kg): 180 to 240 min | Cmax ([8]; plasma, iv, 40 mg/kg): ~7 µM | Cmax ([8]; plasma, po, 40 mg/kg): ~0.4 µM | bioavailability ([8]; plasma, po, 40 mg/kg): 5 to 10%

COc1cccc2c1c(OCc1ccc(NC(=O)C3CC(F)(F)CN3C(=O)CNC(=O)c3ccnc4ccccc34)cc1)c(C(=O)N(C)c1ccc(C(F)(F)F)cc1)c(=O)n2C (stereo not drawn) [Compound 4]
FAP-dependent activation to tasquinimod [9]: confirm FAP-dependent activation | tumor growth (tumor volume) [10]: decreases tumor growth compared to the control

O=C(Nc1ccc([N+](=O)[O-])cc1Cl)c1cc(Cl)ccc1O [Niclosamide, niclosamide]
CC50 [11]: < 1000 nM | niclosamide in liver as % of Compound 1 concentrations [12]: 25-50% | niclosamide in plasma as % of Compound 1 dose [12]: < 10% | niclosamide in smooth muscle as % based on liver concentrations [12]: < 1% | niclosamide in smooth muscle as % of administered dose based on plasma concentrations [12]: 5-10% | niclosamide level in plasma [12]: < 1 µM | niclosamide level in smooth muscle [12]: < 1 µM | IC50 [13]: < 500 nM
